Data taken from patent US20230081426A1, “COMPOUNDS AND METHODS FOR KRAS MODULATION AND INDICATIONS THEREFOR” (Plexxikon Inc., priority 2020, published 2023).

Legend:
[1] = target: T1, G12C-mutant human KRAS (amino acid residues 1-188) (Homo sapiens, UniProt P01116, G12C); experiment: KRAS Binding Disruption Assay (AlphaScreen; biotinylated KRpep-2d analogue or RAF1-RBD), G12C; conditions: geometric mean, read-out: KRAS GMean IC50 (uM) MUTATION: G12C
T1 construct: G12D or G12C-mutant human KRAS (amino acid residues 1-188) with FLAG tag; made in house; host or cells: E. coli
In short: (§1)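 Compounds are titrated against 5-20 nM mutant KRAS and 5-20 nM of either a biotinylated KRpep-2d analogue or RAF1-RBD, incubated 1 h at 25° C. Disruption is detected as reduced Alpha signal after 1 h with donor and acceptor beads at 10 μg/mL.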

[2] = target: T2, G12V-mutant human KRAS (amino acid residues 1-188) (Homo sapiens, UniProt P01116, G12V); experiment: KRAS Binding Competition Assay (AlphaScreen; biotinylated KRpep-2d analogue), G12V; conditions: geometric mean, read-out: KRAS GMean IC50 (uM) MUTATION: G12V
T2 construct: G12V-mutant human KRAS (amino acid residues 1-188) with FLAG tag was purified from E. coli; made in house; host or cells: E. coli

[3] = target: T3, G12D-mutant human KRAS (amino acid residues 1-188) (Homo sapiens, UniProt P01116, G12D); experiment: KRAS Binding Disruption Assay (AlphaScreen; biotinylated KRpep-2d analogue or RAF1-RBD), G12D; conditions: KRAS G12D; geometric mean; read-out: KRAS GMean IC50 (uM) MUTATION: G12D
T3 construct: G12D or G12C-mutant human KRAS (amino acid residues 1-188) with FLAG tag; made in house; host or cells: E. coli
In short: as §1

Structure (SMILES)	IC50 [1]	IC50 [2]	IC50 [3]
CN1CCC[C@H]1COc1nc(N2CC3CC2CN3)c2cc(Cl)c(-c3cc(O)cc4ccccc34)c(F)c2n1 (stereo partly drawn) [P-0038, 4-(4-(2,5-diazabicyclo[2.2.1]heptan-2-yl)-6-chloro-8-fluoro-2-(((S)-1-methylpyrrolidin-2-yl)methoxy)quinazolin-7-yl)naphthalen-2-ol]	10 to 100 µM	10 to 100 µM	0.0001 to 10 µM
CN1CCC(Oc2nc(N3C[C@H]4CC[C@@H](C3)N4)c3cc(Cl)c(-c4cc(O)cc5ccccc45)c(F)c3n2)CC1 [P-0032, 4-(4-((1R,5S)-3,8-diazabicyclo[3.2.1]octan-3-yl)-6-chloro-8-fluoro-2-((1-methylpiperidin-4-yl)oxy)quinazolin-7-yl)naphthalen-2-ol]	10 to 100 µM	10 to 100 µM	0.0001 to 10 µM
Oc1cccc(F)c1-c1ccc2c(N3C[C@H]4CC[C@@H](C3)N4)nc(OCC34CCCN3CCC4)nc2c1F [P-0049, 2-(4-((1R,5S)-3,8-diazabicyclo[3.2.1]octan-3-yl)-8-fluoro-2-((tetrahydro-1H-pyrrolizin-7a(5H)-yl)methoxy)quinazolin-7-yl)-3-fluorophenol]	10 to 100 µM	100 to 1000 µM	0.0001 to 10 µM
NC1=NC(=O)C(CC(=O)N2[C@@H]3CC[C@H]2CN(c2nc(OCC45CCCN4CCC5)nc4c(F)c(-c5cc(O)cc6ccccc56)ccc24)C3)S1 (stereo partly drawn) [P-0384, 2-amino-5-(2-((1R,5S)-3-(8-fluoro-7-(3-hydroxynaphthalen-1-yl)-2-((tetrahydro-1H-pyrrolizin-7a(5H)-yl)methoxy)quinazolin-4-yl)-3,8-diazabicyclo[3.2.1]octan-8-yl)-2-oxoethyl)thiazol-4 (5H)-one]	0.0001 to 10 µM	0.0001 to 10 µM	0.0001 to 10 µM
CN1CCC[C@H]1COc1nc(N2C[C@H]3CC[C@@H](C2)N3)c2ccc(-c3cc(=O)[nH]c4ccccc34)c(F)c2n1 [P-0761, 4-(4-((1R,5S)-3,8-diazabicyclo[3.2.1]octan-3-yl)-8-fluoro-2-(((S)-1-methylpyrrolidin-2-yl)methoxy)quinazolin-7-yl)quinolin-2(1H)-one]	100 to 1000 µM	–	0.0001 to 10 µM
Oc1cc(-c2ccc3c(N4C[C@H]5CC[C@@H](C4)N5)nc(OCC4CCCCC4)nc3c2F)c2ccccc2c1 [P-0779, 4-(4-((1R,5S)-3,8-diazabicyclo[3.2.1]octan-3-yl)-2-(cyclohexylmethoxy)-8-fluoroquinazolin-7-yl)naphthalen-2-ol]	10 to 100 µM	–	0.0001 to 10 µM
CC(=O)NCCCN1CCCC1COc1nc(N2C[C@H]3CC[C@@H](C2)N3)c2ccc(-c3cc(O)cc4ccccc34)c(F)c2n1 (mixture of isomers) [P-0674, N-(3-((RS)-2-(((4-((1R,5S)-3,8-diazabicyclo[3.2.1]octan-3-yl)-8-fluoro-7-(3-hydroxynaphthalen-1-yl)quinazolin-2-yl)oxy)methyl)pyrrolidin-1-yl)propyl)acetamide]	0.0001 to 10 µM	–	0.0001 to 10 µM
O=C(CCn1ccnc1)N1[C@@H]2CC[C@H]1CN(c1nc(OCC34CCCN3CCC4)nc3c(F)c(-c4cc(O)cc5ccccc45)ccc13)C2 [P-0807, 1-((1R,5S)-3-(8-fluoro-7-(3-hydroxynaphthalen-1-yl)-2-((tetrahydro-1H-pyrrolizin-7a(5H)-yl)methoxy)quinazolin-4-yl)-3,8-diazabicyclo[3.2.1]octan-8-yl)-3-(1H-imidazol-1-yl)propan-1-one]	0.0001 to 10 µM	–	0.0001 to 10 µM
Oc1cc(-c2ccc3c(N4C[C@H]5CC[C@@H](C4)N5)nc(OC[C@@H]4CCCN4)nc3c2F)c2ccccc2c1 [P-0714, 4-(4-((1R,5S)-3,8-diazabicyclo[3.2.1]octan-3-yl)-8-fluoro-2-(((S)-pyrrolidin-2-yl)methoxy)quinazolin-7-yl)naphthalen-2-ol]	10 to 100 µM	–	0.0001 to 10 µM
Oc1cc(-c2ccc3c(N4C[C@H]5CC[C@@H](C4)N5)nc(N4CC(N5CC(F)C5)C4)nc3c2F)c2ccccc2c1 [P-0638, 4-(4-((1R,5S)-3,8-diazabicyclo[3.2.1]octan-3-yl)-8-fluoro-2-(3-fluoro-[1,3′-biazetidin]-1′-yl)quinazolin-7-yl)naphthalen-2-ol]	10 to 100 µM	–	0.0001 to 10 µM
Oc1cc(-c2ccc3c(N4C[C@H]5CC[C@@H](C4)N5)nc(OCc4ncco4)nc3c2F)c2ccccc2c1 [P-0804, 4-(4-((1R,5S)-3,8-diazabicyclo[3.2.1]octan-3-yl)-8-fluoro-2-(oxazol-2-ylmethoxy)quinazolin-7-yl)naphthalen-2-ol]	10 to 100 µM	–	0.0001 to 10 µM
CN1CCC[C@H]1COc1nc(N2C[C@H]3CC[C@@H](C2)N3)c2ccc(-c3c[nH]c4cccc(Cl)c34)c(F)c2n1 [P-0654, 4-((1R,5S)-3,8-diazabicyclo[3.2.1]octan-3-yl)-7-(4-chloro-1H-indol-3-yl)-8-fluoro-2-(((S)-1-methylpyrrolidin-2-yl)methoxy)quinazoline]	10 to 100 µM	–	0.0001 to 10 µM

The next lines start with the values.

IC50 [1]	IC50 [2]	IC50 [3]	Structure (SMILES)
0.0001 to 10 µM	0.0001 to 10 µM	0.0001 to 10 µM	NS(=O)(=O)NCC(=O)N1[C@@H]2CC[C@H]1CN(c1nc(OCC34CCCN3CCC4)nc3c(F)c(-c4cc(O)cc5ccccc45)ccc13)C2 [P-0408, N-(2-((1R,5S)-3-(8-fluoro-7-(3-hydroxynaphthalen-1-yl)-2-((tetrahydro-1H-pyrrolizin-7a(5H)-yl)methoxy)quinazolin-4-yl)-3,8-diazabicyclo[3.2.1]octan-8-yl)-2-oxoethyl)aminosulfonamide]
0.0001 to 10 µM	0.0001 to 10 µM	0.0001 to 10 µM	N#CC1(CC(=O)N2[C@@H]3CC[C@H]2CN(c2nc(OCC45CCCN4CCC5)nc4c(F)c(-c5cc(O)cc6ccccc56)ccc24)C3)CC1 [P-0409, 1-(2-((1R,5S)-3-(8-fluoro-7-(3-hydroxynaphthalen-1-yl)-2-((tetrahydro-1H-pyrrolizin-7a(5H)-yl)methoxy)quinazolin-4-yl)-3,8-diazabicyclo[3.2.1]octan-8-yl)-2-oxoethyl)cyclopropane-1-carbonitrile]
0.0001 to 10 µM	0.0001 to 10 µM	0.0001 to 10 µM	CN1CCC[C@H]1COc1nc(N2CC3COCC(C2)N3)c2ccc(-c3cc(O)cc4ccccc34)c(F)c2n1 [P-0249, 4-(4-(3-oxa-7,9-diazabicyclo[3.3.1]nonan-7-yl)-8-fluoro-2-(((S)-1-methylpyrrolidin-2-yl)methoxy)quinazolin-7-yl)naphthalen-2-ol]
0.0001 to 10 µM	0.0001 to 10 µM	0.0001 to 10 µM	Cc1c(-c2cc(O)cc3ccccc23)ccc2c(N3C[C@H]4CC[C@@H](C3)N4)nc(OCC34CCCN3CCC4)nc12 [P-0015, 4-(4-((1R,5S)-3,8-diazabicyclo[3.2.1]octan-3-yl)-8-methyl-2-((tetrahydro-1H-pyrrolizin-7a(5H)-yl)methoxy)quinazolin-7-yl)naphthalen-2-ol]
0.0001 to 10 µM	0.0001 to 10 µM	0.0001 to 10 µM	O=C1NCCC1NC(=O)N1[C@@H]2CC[C@H]1CN(c1nc(OCC34CCCN3CCC4)nc3cc(-c4cc(O)cc5ccccc45)ccc13)C2 (stereo partly drawn) [P-0135, (1R,5S)-3-(7-(3-hydroxynaphthalen-1-yl)-2-((tetrahydro-1H-pyrrolizin-7a(5H)-yl)methoxy)quinazolin-4-yl)-N-(2-oxopyrrolidin-3-yl)-3,8-diazabicyclo[3.2.1]octane-8-carboxamide]
0.0001 to 10 µM	0.0001 to 10 µM	0.0001 to 10 µM	CN1CC[C@@H](NC(=O)N2[C@@H]3CC[C@H]2CN(c2nc(OCC45CCCN4CCC5)nc4c(F)c(-c5cc(O)cc6ccccc56)ccc24)C3)C1 [P-0186, (1R,5S)-3-(8-fluoro-7-(3-hydroxynaphthalen-1-yl)-2-((tetrahydro-1H-pyrrolizin-7a(5H)-yl)methoxy)quinazolin-4-yl)-N-((R)-1-methylpyrrolidin-3-yl)-3,8-diazabicyclo[3.2.1]octane-8-carboxamide]
0.0001 to 10 µM	0.0001 to 10 µM	0.0001 to 10 µM	O=C(N[C@H]1CCNC1)N1[C@@H]2CC[C@H]1CN(c1nc(OCC34CCCN3CCC4)nc3cc(-c4cc(O)cc5ccccc45)ccc13)C2 [P-0123, (1R,5S)-3-(7-(3-hydroxynaphthalen-1-yl)-2-((tetrahydro-1H-pyrrolizin-7a(5H)-yl)methoxy)quinazolin-4-yl)-N-((S)-pyrrolidin-3-yl)-3,8-diazabicyclo[3.2.1]octane-8-carboxamide]
0.0001 to 10 µM	0.0001 to 10 µM	0.0001 to 10 µM	CN1CCC[C@H]1COc1nc(N2C[C@H]3CC[C@@H](C2)N3C(=O)CCn2cccn2)c2ccc(-c3cc(O)cc4ccccc34)cc2n1 [P-0120, 1-((1R,5S)-3-(7-(3-hydroxynaphthalen-1-yl)-2-(((S)-1-methylpyrrolidin-2-yl)methoxy)quinazolin-4-yl)-3,8-diazabicyclo[3.2.1]octan-8-yl)-3-(1H-pyrazol-1-yl)propan-1-one]
0.0001 to 10 µM	0.0001 to 10 µM	0.0001 to 10 µM	CN1CC[C@H](NC(=O)N2[C@@H]3CC[C@H]2CN(c2nc(OCC45CCCN4CCC5)nc4cc(-c5cc(O)cc6ccccc56)ccc24)C3)C1 [P-0132, (1R,5S)-3-(7-(3-hydroxynaphthalen-1-yl)-2-((tetrahydro-1H-pyrrolizin-7a(5H)-yl)methoxy)quinazolin-4-yl)-N-((S)-1-methylpyrrolidin-3-yl)-3,8-diazabicyclo[3.2.1]octane-8-carboxamide]
